What is called GI50 is the concentration at which growth is held to half of that of the control.

We go through eight compounds from ChEMBL document CHEMBL1201862, “PubChem BioAssay data set” (2004).

Holding throughout (assay): DTP human tumour cell line panel, 48 h
Assay [1] concerns SN12C.
Assay [2] concerns NCI-H522.
Assay [3] deals with OVCAR-8.
The test system of assay [4] is SR.
Assay [5] deals with LOX IMVI.
For assay [6], the system named is M14.
In assay [7] the test system is COLO 205.
For assay [8], the system named is HOP-92.
The test system of assay [9] is SF-295.
In assay [10] the test system is A549.
The test system of assay [11] is 786-0.
The test system of assay [12] is HT-29.
Assay [13] concerns MOLT-4.
For assay [14], the system named is HCT-15.
Assay [15] deals with ACHN.
Assay [16] relates to Malme-3M.
Assay [17] relates to CCRF-CEM.
Assay [18] has as its system NCI-H23.
Assay [19] has as its system HCC 2998.

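Assay format: 96-well plates, 48-hour exposure. GI50 marks 50% less growth.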 Active and inactive are the calls of the source. Cut-off read from the data, not from the text of the source: active = GI50 up to about 1.1 µM and inactive = higher.

In the case of `CC(C)C(=O)OCC1OC(n2c(Br)nc3c(=O)[nH]c(N)nc32)C(OC(=O)C(C)C)C1OC(=O)C(C)C` (stereo not drawn), the GI50 in assay [1] was 48 µM (inactive); in [2], 35.2 µM (inactive); in [3], 31.4 µM (inactive); in assay [4] it was 38 µM (inactive); in assay [5], 19.8 µM (inactive); in [6], > 100 µM (inactive). Moreover, the GI50 was 90.4 µM (inactive) in assay [7]; > 100 µM (inactive) in assay [8]; 21.2 µM (inactive) in assay [9]; 35.6 µM (inactive) in assay [10]; 23.1 µM (inactive) in assay [11]; 17.8 µM (inactive) in [12]. Also, the GI50 is 19.3 µM (inactive) in [13], > 100 µM in assay [14], > 100 µM (inactive) in assay [15] and > 100 µM (inactive) in assay [16].

Regarding `Clc1ccc(-c2nn3c(-c4ccncc4)nnc3s2)cc1`, the GI50 in [1], in assay [2], in [3], in assay [4], in assay [5] and in assay [17] was > 100 µM (inactive) throughout. Also, the GI50 in assay [6] is > 100 µM (inactive); in assay [7], > 100 µM (inactive); in [8], 41.6 µM (inactive); in [9], 62.1 µM (inactive); in assay [10], > 100 µM (inactive); in [11] it was 11 µM (inactive). Also, the GI50 is > 100 µM (inactive) in assay [12]; > 100 µM (inactive) in assay [13]; 16.4 µM in assay [14]; 61 µM (inactive) in assay [15]; > 100 µM (inactive) in assay [18]; > 100 µM (inactive) in assay [16].

Consider `CN(NC1OC(CO)C(O)C(O)C1O)c1ccccc1` (stereo not drawn), for which the GI50 was 43.4 µM (inactive) in assay [19]; 94.4 µM (inactive) in assay [2]; > 100 µM (inactive) in assay [3]; > 100 µM (inactive) in assay [4]; > 100 µM (inactive) in assay [5]; > 100 µM (inactive) in assay [17]. Also, the GI50 in assay [6], in assay [7], in assay [8], in assay [9], in [10] and in assay [11] was > 100 µM (inactive) each time. Besides, the GI50 in [12] was > 100 µM (inactive); in assay [13], > 100 µM (inactive); in [14], > 100 µM; in assay [15], > 100 µM (inactive); in assay [18] it was > 100 µM (inactive); in [16], > 100 µM (inactive).

Take `O=c1c2cccnc2ncn1CCN1CCCC1`: the GI50 in [1], in assay [19], in [2], in assay [3], in [4] and in assay [5] was > 100 µM (inactive) each time. Further, the GI50 in assay [17], in [6], in assay [7], in assay [8], in assay [9] and in assay [10] was > 100 µM (inactive) each time. Moreover, the GI50 in [11], in [12], in [13], in [15], in assay [18] and in [16] was > 100 µM (inactive) each time.

In the case of `O=C(c1ccccc1)c1c(CC(O)c2ccccn2)n(C(=O)c2ccccc2)c2ccccc12` (stereo not drawn), the GI50 in [19] is 31.5 µM (inactive); in assay [2], 20.3 µM (inactive); in [3], 29.2 µM (inactive); in assay [4], 15.1 µM (inactive); in assay [17], 25.6 µM (inactive); in assay [6], 18.9 µM (inactive). Further, the GI50 in assay [7] was 23.1 µM (inactive); in assay [8] it was 18.9 µM (inactive); in assay [9] it was 20.2 µM (inactive); in [10] it was 25.3 µM (inactive); in assay [11], 26.1 µM (inactive); in assay [12], 15 µM (inactive). For the same compound, the GI50 is 17.1 µM (inactive) in assay [13]; 23.4 µM in assay [14]; 26.7 µM (inactive) in assay [15]; 22.1 µM (inactive) in [18]; 18.6 µM (inactive) in [16].

With `CC(C)C.C[N+](C)(C)C.OC(c1ccccc1)(C(F)(F)F)C(F)(F)F.OC(c1ccccc1)(C(F)(F)F)C(F)(F)F.[SiH3-]`, the GI50 in assay [1] was 5.68 µM (inactive); in [19], 3.56 µM (inactive); in assay [2], 6.01 µM (inactive); in assay [3] it was 9.23 µM (inactive); in assay [4], 2.09 µM (inactive); in assay [6], 1.05 µM (active). The GI50 in assay [7] is 6.49 µM (inactive); in assay [8] it was < 0.01 µM (active); in assay [9], 3.42 µM (inactive); in assay [10], 4.79 µM (inactive); in assay [11] it was 2.97 µM (inactive); in [12] it was 3.64 µM (inactive). For the same compound, the GI50 in assay [13] is 1.73 µM (inactive); in assay [14], 2.13 µM; in assay [15], 8.51 µM (inactive); in assay [18], 3.25 µM (inactive); in assay [16] it was 11.1 µM (inactive).

`COc1ccc(C2=C(OC(=O)N(C)C)c3cccn3-c3cc(Cl)ccc3S2)cc1`: the GI50 in assay [1] was > 10 µM (inactive); in assay [19] it was > 10 µM (inactive); in assay [3] it was > 10 µM (inactive); in assay [4] it was 6.38 µM (inactive); in assay [5] it was > 10 µM (inactive); in assay [17], 8.07 µM (inactive). Also, the GI50 in [6] was > 10 µM (inactive); in assay [7], > 10 µM (inactive); in assay [8] it was 6.78 µM (inactive); in assay [9] it was > 10 µM (inactive); in assay [10], > 10 µM (inactive); in [11] it was > 10 µM (inactive). Further, the GI50 is > 10 µM (inactive) in [12]; 7.89 µM (inactive) in [13]; > 10 µM in assay [14]; > 10 µM (inactive) in assay [18]; > 10 µM (inactive) in assay [16].

In the case of `C=C1C[C@]23C[C@@]1(O)CC[C@H]2[C@@]12C=C[C@H](O)[C@@](C)(C(=O)O1)[C@H]2[C@@H]3C(=O)O` [GIBBERELLIN A3], the GI50 in assay [1], in assay [19], in assay [2], in assay [4], in [5] and in [17] was > 100 µM (inactive) each time. Moreover, the GI50 in assay [6], in assay [7], in assay [8], in assay [9], in [10] and in assay [11] was > 100 µM (inactive) in each case. The GI50 in assay [12] is > 100 µM (inactive); in assay [13] it was > 100 µM (inactive); in [14], > 100 µM; in assay [18], > 100 µM (inactive); in assay [16], > 100 µM (inactive).
